Common to all, as to assay type: cell-based
The target in one data set is T1, TRPM8 (Rattus norvegicus, UniProt Q8R455).
T1 construct: expressed in transfected cells
Kind of data set: Ca2+ microfluorography (Fluo-4 NW), menthol-induced Ca2+ signal in HEK-CR1-TRPM8 cells. The following applies: for % Block TRPM8 50 µM: 50 µM compound; for % Block TRPM8 50 µM / IC50: agonist 100 µM menthol, HEK-CR1-TRPM8 cells. On the procedure: All compounds were tested at two different concentrations (50 and 5 µM) on TRPM8 and TRPV1 channels stably expressed in HEK and SH-SY5Y cell lines, respectively. The agonist induced intracellular Ca^2+ signals were measured using a fluorescent Ca^2+ indicator, in the absence and in the presence of test compounds. […] The obtained results were compared to those of 68 (AMTB, TRPM8 antagonist) and ruthenium red (TRPV1 antagonist). The IC50 values for the assay on TRPM8 were also calculated.
For fluorescence assays, cells expressing TRP channels (SH-SY5Y-TRPV1 and HEKCR1-TRPM8) were seeded in 96-well plates (Corning Incorporated, Corning, NY) at a cell density of 40,000 cells 2 days before treatment. The day of treatment the medium was replaced with 100 µL of the dye loading solution Fluo-4 NW supplemented with probenecid 2.5 mM. Then the compounds dissolved in DMSO were added at the desired concentrations and the plate(s) were incubated at 37 °C in a humidified atmosphere of 5% CO2 for 60 minutes.
The fluorescence was measured using instrument settings appropriate for excitation at 485 nm and emission at 535 nm (POLARstar Omega BMG LABtech). […] The corresponding antagonist
(10 µM Ruthenium Red forTRPV1 and 10 µM 68 for TRPM8) was added for the blockade. The changes in fluorescence intensity were recorded during 15 cycles more. […] The blocking percentage was calculated as follow (Eq. 1):1 %TRPBlockedResponse=(1−Fo−Fi/FCo−FCi)∗100 where Fo is the fluorescence after the addition of menthol in the presence of the compound, Fi is the fluorescence before the addition of menthol in the presence of the compound, FCo is the fluorescence after the addition of menthol in the absence of the compound, FCi is the fluorescence before the addition of menthol in the absence of the compound. To guarantee that our results were useful we only used assays with a Z-factor higher than 0.5.
The statistical Z-factor to determine the quality of the HTS experiment as was calculated using the equation 2:2 Z‐factor=1−3∗(SDmax+SDmin)/Meanmax−Meanmin where: Meanmax is the mean of the maximum fluorescence in the presence of agonist, SDmax is the standard deviation of the maximum fluorescence in the presence of agonists, Meanmin is the mean of the maximum fluorescence in the presence of agonist and antagonist and SDmin is the standard deviation of the maximum fluorescence in the presence of agonist and antagonist.

The next data set addresses Kv1.1 (Homo sapiens, UniProt Q09470). The data set is described as follows: Whole-cell patch clamp in cells expressing Kv1.1. The method, then:
(§1) Electrophysiological recording was carried out 1–3 d after cells seeded. Membrane currents and voltages were recorded by patch clamp using the whole-cell configuration. For whole-cell recordings of HEK-hTRPV1 and HEK-TRPM8 cells, pipette solution contained (in mM) 140 CsCl, 5 EGTA, and 10 HEPES, adjusted to pH 7.2 with CsOH, and bath solution contained (in mM) 140 NaCl, 5 KCl, 2 CaCl2, 2 MgCl2, 5 EGTA, 10 D-glucose, 10 Mannitol and 10 HEPES, adjusted to pH 7.4 with NaOH. In calcium-free bath solution, CaCl2 was replaced with 5mM EGTA. For potassium and sodium recordings, CsCl was substituted by KCl and the pH was adjusted to pH 7.2 with KOH. Patch pipettes were prepared from thin-walled borosilicate glass capillaries (World Precision Instruments, Sarasota, FL, USA), pulled with a horizontal puller (P-97, Sutter Instruments, Novato, CA, USA) to have a tip resistance of 2–4 MΩ when filled with internal solutions. Data were sampled at 10 kHz (EPC10 amplifier with PatchMaster 2.53 software, HEKA Electronics, Lambrecht, Germany) and low-pass filtered at 3 kHz for analysis (PatchMaster 2.53 and GraphPad Prism 5, Graphpad Software, USA). The series resistance was <10 MΩ and to minimize voltage errors was compensated to 60–80%. All measurements were performed at 24–25°C. […]

In another data set the target is NaV1.6 (Homo sapiens, UniProt Q9UQD0). The data set is described as follows: Whole-cell patch clamp in cells expressing NaV1.6. On the procedure: as §1
In another data set the test system is HEK-CR1 cells. The data set is described as follows: MTT-based assay of cytotoxicity. The following applies: 24 hours incubation; three concentrations. The method, then: Figure 2S. Effect of derivative 41 and 45 on MTT-based assay of cytotoxicity in HEK-CR1 cells.
A) Cell survival after 24 hours incubation at three concentrations of derivative 41 or B) derivative 45.
Each value is expressed as mean ± SEM. n ≥ 4, ANOVA with Bonferroni post hoc test (*** p < 0.001).
Cell viability assay (MTT)
Cell viability was assessed by the detection of mitochondrial activity in living cells using a modified colorimetric analysis of Blue Tetrazolium Bromide Thiazolyl (MTT). Briefly, HEK293 cells (2 × 10^4 cells/well) were subcultured in 96-well plates, grown until 80–90% confluence, and incubated with increasing concentrations of testing compounds for 24 h. Following treatment, 10 μL of MTT solution (5 mg/mL in phosphate buffered saline) was added to each well and further incubated for 4 h at 37 °C. Subsequently, 100 μL of DMSO was added to each well to dissolve any deposited formazan resulting from cleavage and reduction of MTT by active mitochondrial dehydrogenases. The optical density of each well was measured at 540 nm with a microplate reader (Polastar BMG LABTECH, […]
(1 picture or pasted object on this page, not shown here)

T1 sequence (Q8R455 whole entry): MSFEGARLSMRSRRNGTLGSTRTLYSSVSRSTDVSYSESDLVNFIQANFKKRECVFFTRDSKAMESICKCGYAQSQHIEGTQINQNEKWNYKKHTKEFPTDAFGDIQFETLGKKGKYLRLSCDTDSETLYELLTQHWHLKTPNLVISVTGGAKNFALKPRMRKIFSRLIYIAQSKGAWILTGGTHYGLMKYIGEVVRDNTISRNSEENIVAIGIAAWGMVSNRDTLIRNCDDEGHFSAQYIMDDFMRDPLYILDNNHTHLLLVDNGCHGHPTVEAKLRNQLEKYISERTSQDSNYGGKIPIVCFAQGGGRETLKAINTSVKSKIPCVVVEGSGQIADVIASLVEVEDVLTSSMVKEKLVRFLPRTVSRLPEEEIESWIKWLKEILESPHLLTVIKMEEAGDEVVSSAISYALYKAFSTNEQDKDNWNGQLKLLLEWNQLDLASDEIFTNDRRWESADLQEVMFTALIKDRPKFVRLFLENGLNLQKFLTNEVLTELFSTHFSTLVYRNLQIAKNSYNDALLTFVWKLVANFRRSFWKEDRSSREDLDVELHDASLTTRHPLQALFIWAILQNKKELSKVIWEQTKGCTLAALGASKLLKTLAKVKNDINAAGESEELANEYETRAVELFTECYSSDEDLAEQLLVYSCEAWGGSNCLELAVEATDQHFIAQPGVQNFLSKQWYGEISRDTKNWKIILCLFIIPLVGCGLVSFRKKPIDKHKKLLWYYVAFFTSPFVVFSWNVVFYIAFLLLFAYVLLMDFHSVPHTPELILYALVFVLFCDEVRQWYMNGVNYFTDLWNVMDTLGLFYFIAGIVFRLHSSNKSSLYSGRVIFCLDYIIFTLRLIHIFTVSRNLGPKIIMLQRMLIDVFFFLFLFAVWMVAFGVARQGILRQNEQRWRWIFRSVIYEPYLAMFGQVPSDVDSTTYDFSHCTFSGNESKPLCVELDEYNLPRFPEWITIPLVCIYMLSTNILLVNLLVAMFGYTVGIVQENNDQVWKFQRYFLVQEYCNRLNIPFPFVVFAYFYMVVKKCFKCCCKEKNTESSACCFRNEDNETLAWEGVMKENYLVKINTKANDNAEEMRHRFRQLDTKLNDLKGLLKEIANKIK
Chain of Kv1.1 (Q09470 whole entry): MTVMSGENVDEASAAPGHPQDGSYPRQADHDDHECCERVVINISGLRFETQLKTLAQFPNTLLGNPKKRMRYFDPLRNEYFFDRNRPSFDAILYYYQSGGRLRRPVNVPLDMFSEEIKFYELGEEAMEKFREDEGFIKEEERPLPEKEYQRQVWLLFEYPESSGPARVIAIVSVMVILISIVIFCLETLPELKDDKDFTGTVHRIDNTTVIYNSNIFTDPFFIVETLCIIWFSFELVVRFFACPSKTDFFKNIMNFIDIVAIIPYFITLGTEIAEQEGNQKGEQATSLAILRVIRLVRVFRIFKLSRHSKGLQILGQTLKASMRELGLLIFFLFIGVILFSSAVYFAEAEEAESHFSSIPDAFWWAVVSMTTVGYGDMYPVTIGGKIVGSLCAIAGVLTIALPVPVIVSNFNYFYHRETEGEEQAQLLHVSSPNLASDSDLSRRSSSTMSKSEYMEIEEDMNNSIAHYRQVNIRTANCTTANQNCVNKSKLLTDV
Chain of NaV1.6 (Q9UQD0 whole entry): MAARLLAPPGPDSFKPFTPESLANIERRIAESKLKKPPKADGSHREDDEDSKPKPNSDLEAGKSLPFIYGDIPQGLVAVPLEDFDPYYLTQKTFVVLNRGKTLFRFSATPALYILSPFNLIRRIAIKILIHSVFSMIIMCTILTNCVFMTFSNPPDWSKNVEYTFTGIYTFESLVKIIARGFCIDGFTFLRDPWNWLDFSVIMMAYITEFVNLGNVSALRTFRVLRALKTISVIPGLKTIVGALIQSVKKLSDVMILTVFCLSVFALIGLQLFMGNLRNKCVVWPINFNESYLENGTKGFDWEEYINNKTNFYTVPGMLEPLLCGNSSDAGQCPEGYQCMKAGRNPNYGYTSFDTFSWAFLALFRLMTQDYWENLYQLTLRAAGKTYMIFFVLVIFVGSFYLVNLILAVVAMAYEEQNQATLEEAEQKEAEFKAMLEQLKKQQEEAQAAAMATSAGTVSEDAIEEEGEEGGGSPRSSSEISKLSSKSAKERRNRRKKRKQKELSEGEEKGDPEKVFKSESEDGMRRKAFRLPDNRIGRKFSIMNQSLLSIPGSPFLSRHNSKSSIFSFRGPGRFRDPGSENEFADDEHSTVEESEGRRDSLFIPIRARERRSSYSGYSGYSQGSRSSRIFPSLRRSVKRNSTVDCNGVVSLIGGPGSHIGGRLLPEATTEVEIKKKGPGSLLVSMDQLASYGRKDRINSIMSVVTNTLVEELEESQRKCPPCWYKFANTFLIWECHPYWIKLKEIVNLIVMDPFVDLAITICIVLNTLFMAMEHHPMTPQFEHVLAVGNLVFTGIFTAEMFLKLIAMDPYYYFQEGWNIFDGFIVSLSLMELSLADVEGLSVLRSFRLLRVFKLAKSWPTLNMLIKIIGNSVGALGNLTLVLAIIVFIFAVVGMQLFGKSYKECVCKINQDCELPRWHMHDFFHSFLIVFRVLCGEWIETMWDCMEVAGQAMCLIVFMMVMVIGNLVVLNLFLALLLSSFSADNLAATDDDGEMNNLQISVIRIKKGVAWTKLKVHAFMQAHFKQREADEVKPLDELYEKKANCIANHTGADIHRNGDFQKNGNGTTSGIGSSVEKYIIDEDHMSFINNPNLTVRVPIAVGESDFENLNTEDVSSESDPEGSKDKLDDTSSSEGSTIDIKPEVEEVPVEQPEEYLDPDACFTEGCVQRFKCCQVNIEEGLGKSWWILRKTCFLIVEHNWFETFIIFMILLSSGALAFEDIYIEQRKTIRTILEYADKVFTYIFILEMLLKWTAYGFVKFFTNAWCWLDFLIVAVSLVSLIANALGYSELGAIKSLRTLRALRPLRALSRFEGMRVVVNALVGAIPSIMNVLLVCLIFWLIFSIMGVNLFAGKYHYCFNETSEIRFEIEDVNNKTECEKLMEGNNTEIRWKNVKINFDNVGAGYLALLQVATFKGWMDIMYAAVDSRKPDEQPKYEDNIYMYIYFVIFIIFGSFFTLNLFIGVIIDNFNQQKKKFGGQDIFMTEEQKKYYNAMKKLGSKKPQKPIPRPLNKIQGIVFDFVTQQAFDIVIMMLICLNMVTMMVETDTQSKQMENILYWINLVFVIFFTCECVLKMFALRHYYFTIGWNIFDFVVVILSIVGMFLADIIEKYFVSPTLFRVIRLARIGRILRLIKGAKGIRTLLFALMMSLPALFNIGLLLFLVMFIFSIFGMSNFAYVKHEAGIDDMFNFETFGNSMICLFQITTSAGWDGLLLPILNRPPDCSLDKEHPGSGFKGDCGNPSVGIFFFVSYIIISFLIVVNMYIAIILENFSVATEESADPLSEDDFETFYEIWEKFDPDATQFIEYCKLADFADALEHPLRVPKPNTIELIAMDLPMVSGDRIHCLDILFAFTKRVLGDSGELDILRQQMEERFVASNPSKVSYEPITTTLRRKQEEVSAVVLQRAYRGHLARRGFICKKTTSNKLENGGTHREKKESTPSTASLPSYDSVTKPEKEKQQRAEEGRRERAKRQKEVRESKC

As for `CC1C(=O)N(CC[C@H](NC(=O)OC(C)(C)C)C(=O)OCc2ccccc2)C1(Cc1ccccc1)C(=O)OCc1ccccc1` (stereo partly drawn) [Compound 45, 4R,S-Benzyl-4-benzyloxycarbonyl-1-[(3′S-benzyloxycarbonyl-3′-tert-butoxycarbonylamino)prop-1′-yl]-(3R,S)-methyl-2-oxoazetidine], the “% Block TRPM8 50 µM” value on TRPM8 is 100%. Also, the figures for the concentration for half-maximal inhibition (IC50) on TRPM8, against Kv1.1 and at NaV1.6 were 800 ± 1170 nM, more than 1000 nM and more than 1000 nM, respectively. Further, the “cytotoxicity in the MTT assay” value in the data set with HEK-CR1 cells was “did not display apparent cytotoxicity”.

On to `CC(C)(C)OC(=O)N[C@@H](CCN1C(=O)CC1(Cc1ccccc1)C(=O)OCc1ccccc1)C(=O)OCc1ccccc1` (some centres unmarked) [Compound 41, 4R,S-Benzyl-4-benzyloxycarbonyl-1-[(3′S-benzyloxycarbonyl-3-tert-butoxycarbonylamino-3′-benzyloxycarbonyl)prop-1′-yl]-2-oxoazetidine], for which the “blocking effect against TRPM8 at 5 µM” value on TRPM8 (5 µM compound) is 95%. For the same molecule, on TRPM8, the “% Block TRPM8 50 µM” value is on record as 96.3 ± 1.6%. In addition, the IC50 at TRPM8 is 420 nM; on Kv1.1, more than 1000 nM; at NaV1.6, more than 1000 nM. Further, the “cytotoxicity in the MTT assay” value with HEK-CR1 cells was “did not display apparent cytotoxicity”.

The values are drawn from PMC5589751, “Synthesis, high-throughput screening and pharmacological characterization of β–lactam derivatives as TRPM8 antagonists” (Scientific Reports, 2017).
